According to patent US9573954B2, “Pyrazolopyrimidine compounds” (University Health Network, priority 2012, dated 2017):
Like-named read-outs stand apart in the source and are kept apart here.

Key:
[1] = biological target: T1, human TTK (Homo sapiens, UniProt P33981); test: TTK inhibition assay (indirect ELISA); assay type: biochemical; settings: 100 μM ATP; read-out: TTK IC50 Range
T1 construct: Active TTK was purchased from Invitrogen as an amino terminal GST fusion of full length human TTK; purchased Invitrogen
T1 sequence (P33981 1-857): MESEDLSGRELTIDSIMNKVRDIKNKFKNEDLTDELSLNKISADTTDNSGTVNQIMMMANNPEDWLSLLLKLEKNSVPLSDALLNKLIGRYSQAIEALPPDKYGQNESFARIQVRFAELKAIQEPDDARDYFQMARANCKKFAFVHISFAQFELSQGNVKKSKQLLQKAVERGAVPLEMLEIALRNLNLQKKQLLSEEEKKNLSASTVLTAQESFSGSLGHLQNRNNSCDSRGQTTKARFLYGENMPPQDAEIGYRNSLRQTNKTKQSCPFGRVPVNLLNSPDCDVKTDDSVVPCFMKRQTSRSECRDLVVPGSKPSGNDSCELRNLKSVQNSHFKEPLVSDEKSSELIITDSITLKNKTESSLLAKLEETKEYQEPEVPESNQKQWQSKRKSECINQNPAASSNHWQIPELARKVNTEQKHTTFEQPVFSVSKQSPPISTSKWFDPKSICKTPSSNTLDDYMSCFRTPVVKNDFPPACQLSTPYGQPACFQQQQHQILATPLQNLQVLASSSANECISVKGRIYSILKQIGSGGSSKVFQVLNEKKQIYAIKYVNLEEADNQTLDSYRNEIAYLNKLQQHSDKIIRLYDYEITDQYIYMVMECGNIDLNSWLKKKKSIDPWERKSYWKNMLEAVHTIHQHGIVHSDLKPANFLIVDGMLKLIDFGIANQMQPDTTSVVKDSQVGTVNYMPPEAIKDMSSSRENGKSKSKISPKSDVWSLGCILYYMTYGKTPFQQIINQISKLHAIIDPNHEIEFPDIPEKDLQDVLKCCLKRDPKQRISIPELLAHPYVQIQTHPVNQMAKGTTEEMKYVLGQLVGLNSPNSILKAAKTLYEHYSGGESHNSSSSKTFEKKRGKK
Description: Active TTK was purchased from Invitrogen as an amino terminal GST fusion of full length human TTK.
TTK activity was measured using an indirect ELISA detection system.
Compounds were pre-incubated in the presence of enzyme for 5 minutes prior to addition of ATP and the activity remaining quantified using the above described activity assay. The % Inhibition of a compound was determined using the following formula; % Inhibition=100×(1−(experimental value−background value)/(high activity control−background value)). The IC50 value was determined using a non-linear 4 point logistic curve fit (XLfit4, IDBS) with the formula; (A+(B/(1+((x/C)^D)))), where A=background value, B=range, C=inflection point, D=curve fit parameter.

[2] = system: breast cancer cells (MDA-MB-468); test: Cancer cell line growth inhibition, Sulforhodamine B assay, MDA-MB-468; assay type: cell-based; settings: read-out: Cancer Cell Line GI50 Range MDA-MB-468
Description: (§1) Breast cancer cells (MDA-MB-231 and MDA-MB-468), colon cancer cells (HCT116) and ovarian cancer cells (PA-1 and OVCAR-3) were seeded (1000 to 4000 in 80 μl per well depending on the cell growth rate) into 96 well plates 24 hours before compound overlay. Compounds were prepared as 10 mM stock solutions in 100% DMSO which were diluted with DMEM (Dulbecco's Modified Eagle's Medium) cell growth Medium (Invitrogen, Burlington, ON, Canada) containing 10% FBS (Fetal Bovine Serum) to concentrations ranging from 50 nM to 250 μM. Aliquots (20 μl) from each concentration were overlaid to 80 μl of the pre-seeded cells in the 96 well plates to make final concentrations of 10 nM to 50 μM. The cells were cultured for 5 days before the Sulforhodamine B assay (SRB) was performed to determine the compound's cell growth inhibition activity.
(§2) Sulforhodamine B (purchased from Sigma, Oakville, ON, Canada) is a water-soluble dye that binds to the basic amino acids of the cellular proteins. Thus, colorimetric measurement of the bound dye provides an estimate of the total protein mass that is related to the cell number. the cells are fixed in situ by gently aspirating off the culture media and adding 50 μl ice cold 10% Trichloroacetic Acid (TCA) per well and incubate at 4° C. for 30-60 min, The plates are washed with H2O five times and allowed to air dry for 5 min. Addition of 50 μl 0.4% (w/v) SRB solution in 1% (v/v) acetic acid to each well and incubation for 30 min at RT completes the staining reaction. Following staining, plates are washed four times with 1% acetic acid to remove unbound dye and then allowed to air dry for 5 min. The stain is solubilized with 100 μl of 10 mM Tris pH 10.5 per well. Absorbance is read at 570 nm.
(§3) The percentage (%) of relative growth inhibition was calculated by comparing to DMSO treated only cells (100%). GI50's were determined for compounds with cytotoxic activity. The GI50 was calculated using GraphPad PRISM software (GraphPad Software, Inc., San Diego, Calif., USA).
(§4) In Table 1 below, GI50 value ranges for compound examples against breast cancer cell lines (MDA-MB-468), colon cancer cell lines (HCT116) and ovarian cancer cell lines (PA-1) are given.
(§5) In Table 3 below, GI50 value ranges for compound examples against breast cancer cell lines (MDA-MB-468), colon cancer cell lines (HCT116) and ovarian cancer cell lines (OVCAR-3) are given.

[3] = system: ovarian cancer cells (OVCAR-3); test: Cancer cell line growth inhibition, Sulforhodamine B assay, OVCAR-3; assay type: cell-based; settings: read-out: Cancer Cell Line GI50 Range OVCAR-3
Description: as §1, §2, §3, §5

[4] = system: colon cancer cells (HCT116); test: Cancer cell line growth inhibition, Sulforhodamine B assay, HCT116; assay type: cell-based; settings: read-out: Cancer Cell Line GI50 Range HCT116
Description: as §1, §2, §3, §4
In Table 2 below, GI50 value ranges for compound examples against breast cancer cell lines (MDA-MB-231), colon cancer cell lines (HCT116) and ovarian cancer cell lines (PA-1) are given.
as §5

[5] = Homo sapiens, MDA-MB-468, MDA-MB-468 breast cancer cell line
[6] = Homo sapiens, OVCAR-3, OVCAR-3 ovarian cancer cell line
[7] = Homo sapiens, HCT-116, HCT116 colon cancer cell line
[8] = MDA-MB-468 breast cancer cell line
[9] = OVCAR-3 ovarian cancer cell line

| SMILES | IC50 [1] | GI50 [2, 5] | GI50 [3, 6] | GI50 [4, 7] | GI50 [2, 8] | GI50 [3, 9] | GI50 ([4]; HCT116 colon cancer cell line) |
| --- | --- | --- | --- | --- | --- | --- | --- |
| Cc1cc(-c2cnn3c(NC[C@@H]4CCOC4)cc(N[C@H]4CCCC[C@H]4O)nc23)ccc1C(=O)NC1CC1 [Example C36, N-cyclopropyl-4-(5-(((1S,2R)-2-hydroxycyclohexyl)amino)-7-((((S)-tetrahydrofuran-3-yl)methyl)amino)pyrazolo[1,5-a]pyrimidin-3-yl)-2-methylbenzamide] | < 100 nM | ≤ 100 nM | ≤ 100 nM | ≤ 100 nM | – | – | – |
| Cc1cc(-c2cnn3c(NC[C@H]4C[C@@](C)(O)C4)cc(NC4CCCC4)nc23)ccc1C(=O)NC1CC1 [Example C44, 4-(5-(cyclopentylamino)-7-((((1s,3s)-3-hydroxy-3-methylcyclobutyl)methyl)amino)pyr-azolo[1,5-a]pyrimidin-3-yl)-N-cyclopropyl-2-methylbenzamide] | < 100 nM | ≤ 100 nM | ≤ 100 nM | ≤ 100 nM | – | – | – |
| Cc1cc(-c2cnn3c(NCCN4CCC(F)CC4)cc(Oc4cccc(F)c4F)nc23)ccc1C(=O)NC1CC1 [Example C47, N-cyclopropyl-4-(5-(2,3-difluorophenoxy)-7-((2-(4-fluoropiperidin-1-yl)ethyl)amino)pyrazolo[1,5-a]pyrimidin-3-yl)-2-methylbenzamide] | < 100 nM | ≤ 100 nM | ≤ 100 nM | ≤ 100 nM | – | – | – |
| Cc1cc(-c2cnn3c(NCc4cccnc4)cc(NC4CCOCC4)nc23)ccc1C(=O)NC1CC1 [Example C49] | < 100 nM | 100 to 500 nM | 100 to 500 nM | 100 to 500 nM | – | – | – |
| Cc1cc(-c2cnn3c(NCCN4CCOCC4)cc(Oc4cccnc4)nc23)ccc1C(=O)NC1CC1 [Example C51] | < 100 nM | 100 to 500 nM | 100 to 500 nM | 100 to 500 nM | – | – | – |
| Cc1cc(-c2cnn3c(NCc4cccnc4)cc(OC4CCOCC4)nc23)ccc1C(=O)NC1CC1 [Example C52] | < 100 nM | 100 to 500 nM | > 500 nM | 100 to 500 nM | – | – | – |
| Cc1cc(-c2cnn3c(NCc4ccncc4)cc(NC4CCOCC4)nc23)ccc1C(=O)NC1CC1 [Example C54] | < 100 nM | – | – | – | 100 to 500 nM | 100 to 500 nM | 100 to 500 nM |
| Cc1cc(-c2cnn3c(NCC4CCOCC4)cc(Oc4cncc(F)c4)nc23)ccc1C(=O)NC1CC1 [Example C56] | < 100 nM | ≤ 100 nM | ≤ 100 nM | ≤ 100 nM | – | – | – |
| Cc1cc(-c2cnn3c(NCCCn4ccnc4)cc(Oc4ccccc4)nc23)ccc1C(=O)NC1CC1 [Example C61] | < 100 nM | ≤ 100 nM | ≤ 100 nM | ≤ 100 nM | – | – | – |
| Cc1cc(-c2cnn3c(NC[C@H]4CCCO4)cc(NC4CCCC4)nc23)ccc1C(=O)NC1CC1 [Example C62] | < 100 nM | 100 to 500 nM | 100 to 500 nM | 100 to 500 nM | – | – | – |
| Cc1cc(-c2cnn3c(NCC4CCOCC4)cc(N4C5CCC4CC(O)C5)nc23)ccc1C(=O)NC1CC1 (stereo not shown) [Example C66] | < 100 nM | 100 to 500 nM | 100 to 500 nM | 100 to 500 nM | – | – | – |
| Cc1cc(-c2cnn3c(NC[C@H]4CCCO4)cc(NC4CCCC4)nc23)ccc1C(=O)NC1CC1 [Example C72] | < 100 nM | – | – | – | ≤ 100 nM | 100 to 500 nM | ≤ 100 nM |
| Cc1cc(-c2cnn3c(NCCN4CCOCC4)cc(NC4CCCC4)nc23)ccc1C(=O)NC1CC1 [Example C77] | < 100 nM | 100 to 500 nM | 100 to 500 nM | 100 to 500 nM | – | – | – |
| COc1cccc(Oc2cc(NCCN3CCOCC3)n3ncc(-c4ccc(C(=O)NC5CC5)c(C)c4)c3n2)c1 [Example C85] | < 100 nM | 100 to 500 nM | 100 to 500 nM | 100 to 500 nM | – | – | – |

Continued, values first:

| IC50 [1] | GI50 [2, 5] | GI50 [3, 6] | GI50 [4, 7] | GI50 [2, 8] | GI50 [3, 9] | GI50 ([4]; HCT116 colon cancer cell line) | SMILES |
| --- | --- | --- | --- | --- | --- | --- | --- |
| < 100 nM | 100 to 500 nM | 100 to 500 nM | 100 to 500 nM | – | – | – | Cc1cc(-c2cnn3c(NCC4CCOCC4)cc(NCC4CCOCC4)nc23)ccc1C(=O)NC1CC1 [Example C57] |
| < 100 nM | 100 to 500 nM | 100 to 500 nM | ≤ 100 nM | – | – | – | Cc1cc(-c2cnn3c(NCC4CCOCC4)cc(N(C)C4CCCC4)nc23)ccc1C(=O)NC1CC1 [Example C58] |
| < 100 nM | 100 to 500 nM | 100 to 500 nM | 100 to 500 nM | – | – | – | Cc1cc(-c2cnn3c(NCC4CCOCC4)cc(Nc4cccnc4)nc23)ccc1C(=O)NC1CC1 [Example C59] |
| < 100 nM | 100 to 500 nM | > 500 nM | 100 to 500 nM | – | – | – | Cc1cc(-c2cnn3c(NCC4CCOCC4)cc(NCC4COC4)nc23)ccc1C(=O)NC1CC1 [Example C71] |
| < 100 nM | 100 to 500 nM | > 500 nM | 100 to 500 nM | – | – | – | Cc1cc(-c2cnn3c(NCC4CCOCC4)cc(NCc4cccnc4)nc23)ccc1C(=O)NC1CC1 [Example C74] |
| < 100 nM | 100 to 500 nM | 100 to 500 nM | 100 to 500 nM | – | – | – | Cc1cc(-c2cnn3c(NCC4CCOCC4)cc(N[C@H](CO)C(C)(C)C)nc23)ccc1C(=O)NC1CC1 [Example C78] |
| < 100 nM | > 500 nM | > 500 nM | > 500 nM | – | – | – | Cc1cc(-c2cnn3c(NCC4CCOCC4)cc(N[C@H]4COCC[C@@H]4O)nc23)ccc1C(=O)NC1CC1 [Example C79] |
| < 100 nM | 100 to 500 nM | 100 to 500 nM | 100 to 500 nM | – | – | – | Cc1cc(-c2cnn3c(NCC4CCOCC4)cc(N[C@@H]4CCCOC4)nc23)ccc1C(=O)NC1CC1 [Example C82] |
| < 100 nM | 100 to 500 nM | 100 to 500 nM | ≤ 100 nM | – | – | – | Cc1cc(-c2cnn3c(NCC4CCOCC4)cc(N[C@H]4CCCOC4)nc23)ccc1C(=O)NC1CC1 [Example C83] |
| < 100 nM | 100 to 500 nM | > 500 nM | 100 to 500 nM | – | – | – | Cc1cc(-c2cnn3c(NCC4CCOCC4)cc(N4CCOC[C@H]4CO)nc23)ccc1C(=O)NC1CC1 [Example C87] |
| < 100 nM | 100 to 500 nM | > 500 nM | > 500 nM | – | – | – | Cc1cc(-c2cnn3c(NCC4CCOCC4)cc(NC4(CO)CCOCC4)nc23)ccc1C(=O)NC1CC1 [Example C88] |
